The term IC50 denotes the concentration needed to halve the response being measured.

T1 sequence (P47871 26-477): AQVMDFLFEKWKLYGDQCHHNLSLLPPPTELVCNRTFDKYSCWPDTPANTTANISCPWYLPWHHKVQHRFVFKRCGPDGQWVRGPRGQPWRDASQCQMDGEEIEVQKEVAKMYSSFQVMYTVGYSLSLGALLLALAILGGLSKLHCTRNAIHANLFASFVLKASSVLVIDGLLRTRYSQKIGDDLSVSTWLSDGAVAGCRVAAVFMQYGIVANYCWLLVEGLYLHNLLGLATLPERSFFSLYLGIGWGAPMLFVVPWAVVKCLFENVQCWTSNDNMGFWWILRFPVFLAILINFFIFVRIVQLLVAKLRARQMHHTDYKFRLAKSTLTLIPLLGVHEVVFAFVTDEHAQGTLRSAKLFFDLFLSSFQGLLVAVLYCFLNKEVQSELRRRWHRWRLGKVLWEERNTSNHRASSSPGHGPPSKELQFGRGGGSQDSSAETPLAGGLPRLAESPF

One test concerns the target T1, human glucagon receptor (Homo sapiens, UniProt P47871).
T1 construct: expressed in transfected cells; host or cells: BHK (baby hamster kidney) cells
Description: Glucagon Binding Assay (III). Particulars: BHK cell membranes, WGA SPA beads, 125I-glucagon; read-out: Glu Bd Assay (III) IC50. The essentials: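 Non-specific binding was set with 500 nM glucagon in this SPA-type binding assay using WGA beads. The receptor source was a membrane preparation, kept on ice or at 4 °C, from BHK cells transfected with the human receptor. Scintillation counts were taken after 4 hours of shaking and 8–48 hours of settling.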
On to `O=C(Nc1nn[nH]n1)c1ccc(CN(C(=O)Nc2cccc(C(F)(F)F)c2)c2ccc(C3=CCCCC3)cc2)cc1` [Example 326, 4-[1-(4-Cyclohex-1-enylphenyl)-3-(3-trifluoromethylphenyl)ureidomethyl]-N-(2H-tetrazol-5-yl)benzamide], for which the IC50 was determined as 21 nM. Take `CC(C)(C)c1cccc(NC(=O)N(Cc2ccc(C(=O)Nc3nn[nH]n3)cc2)c2ccc(C3CCCCC3)cc2)c1` [Example 357, 4-[1-(4-Cyclohexylphenyl)-3-(3-tert-butylphenyl)ureidomethyl]-N-(2H-tetrazol-5-yl)benzamide]: the IC50 came out at 17 nM. With `O=C(O)CCNC(=O)c1ccc(CN(C(=O)Oc2ccccc2[N+](=O)[O-])c2ccc(C3CCCCC3)cc2)cc1` [Example 415, 3-(4-{[(4-Cyclohexylphenyl)-(2-nitrophenoxycarbonyl)amino]methyl}benzoylamino)propionic acid], the IC50 came to 2420 nM. The same measure, in the same setting: in the case of `CC(C)(C)C1CCC(N(Cc2ccc(C(=O)Nc3nn[nH]n3)cc2)C(=O)c2cccc(C(F)(F)F)c2)CC1` (centres unmarked) [Example 514, 4-{[(4-tert-Butylcyclohexyl)-(3-trifluoromethylbenzoyl)amino]methyl}-N-(2H-tetrazol-5-yl)benzamide] it was 667 nM. For the compound `O=C(Nc1nn[nH]n1)c1ccc(CN(C(=O)c2ccc(OC(F)(F)F)cc2)c2ccc(C3CCCCC3)cc2)cc1` [Example 485, 4-{[(4-Cyclohexylphenyl)-(4-triflourmethoxybenzoyl)amino]methyl}-N-(2H-tetrazol-5-yl)benzamide], the IC50 turned out to be 810 nM. As for `O=C(Nc1nn[nH]n1)c1ccc(CN(C(=O)Nc2ccc(S(=O)(=O)C(F)(F)F)cc2)c2ccc(C3CCCCC3)cc2)cc1` [Example 455, 4-[1-(4-Cyclohexylphenyl)-3-(4-trifluoromethylsulfonylphenyl)ureidomethyl]-N-(2H-tetrazol-5-yl)benzamide], the IC50 is 53 nM. In the case of `CC(C)(C)C1CCC(N(Cc2ccc(C(=O)Nc3nn[nH]n3)cc2)C(=O)c2cccc3ccccc23)CC1` (centres unmarked) [Example 515, 4-{[(4-tert-Butylcyclohexyl)-(naphth-1-ylcarbonyl)amino]methyl}-N-(2H-tetrazol-5-yl)benzamide], the IC50 was 450 nM. With `O=C(Nc1nn[nH]n1)c1ccc(CN(C(=O)Nc2cc(F)cc(C(F)(F)F)c2)c2ccc(C3CCCCC3)cc2)cc1` [Example 262, 4-[1-(4-Cyclohexylphenyl)-3-(3-fluoro-5-trifluoromethylphenyl)ureidomethyl]-N-(2H-tetrazol-5-yl)benzamide], the IC50 came out at 18 nM. For `CC(C)(C)C1CCC(N(Cc2ccc(C(=O)NCCC(=O)O)cc2)C(=O)Oc2ccc(OC(F)(F)F)cc2)CC1` (centres unmarked) [Example 405, 3-(4-{[(4-tert-Butylcyclohexyl)-(4-trifluoromethoxyphenoxecarbonyl)amino]methyl}benzoylamino)propionic acid], the IC50 was found to be 224 nM. As to `O=C(Nc1nn[nH]n1)c1ccc(CN(C(=O)Nc2cccc(OC(F)(F)F)c2)c2ccc(C3=CCCCC3)cc2)cc1` [Example 352, 4-[1-(4-Cyclohex-1-enylphenyl)-3-(3-trifluoromethoxyphenyl)ureidomethyl]-N-(2H-tetrazol-5-yl)benzamide], the IC50 was 21 nM. Regarding `CCCCC(CC)CN(Cc1ccc(C(=O)NCCC(=O)O)cc1)C(=O)Nc1cccc(C(=O)OCC)c1` (centres unmarked) [Example 40, 3-[3-[4-(2-Carboxyethylcarbamoyl)benzyl]-3-(2-ethylhexyl)ureido]benzoic acid ethyl ester], the IC50 came to 821 nM. For the compound `CC(C)(C)C1CCC(N(Cc2ccc(C(=O)Nc3nn[nH]n3)cc2)C(=O)/C=C/c2c(Cl)cccc2Cl)CC1` (centres unmarked) [Example 503, 4-({(4-tert-Butylcyclohexyl)-[3-(2,6-dichlorophenyl)acryloyl]amino}methyl)-N-(2H-tetrazol-5-yl)benzamide], the IC50 stood at 94 nM. Regarding `CSc1cccc(NC(=O)N(Cc2ccc(C(=O)Nc3nn[nH]n3)cc2)c2ccc(C(C)(C)C)cc2)c1` [Example 293, 4-[1-(4-tert-Butylphenyl)-3-(3-methylsulfanylphenyl)ureidomethyl]-N-(2H-tetrazol-5-yl)benzamide], the IC50 is 45 nM.

Consider `CS(=O)(=O)c1ccccc1NC(=O)N(Cc1ccc(C(=O)Nc2nn[nH]n2)cc1)c1ccc(C2CCCCC2)cc1` [Example 466, 4-[1-(4-Cyclohexylphenyl)-3-(2-methylsulfonylphenyl)ureidomethyl]-N-(2H-tetrazol-5-yl)benzamide], for which the IC50 was determined as 2670 nM. `CC(C)(C)C1CCC(N(Cc2ccc(C(=O)Nc3nn[nH]n3)cc2)C(=O)C/C=C/c2ccccc2)CC1` (centres unmarked) [Example 538, 4-{[(4-tert-Butylcyclohexyl)-(4-phenylbut-3-enoyl)amino]methyl}-N-(2H-tetrazol-5-yl)benzamide]: the IC50 stood at 180 nM. With `CC(C)Oc1ccc(C(=O)N(Cc2ccc(C(=O)Nc3nn[nH]n3)cc2)C2CCC(C(C)(C)C)CC2)cc1` (centres unmarked) [Example 513, 4-{[(4-tert-Butylcyclohexyl)-(4-isopropoxybenzoyl)amino]methyl}-N-(2H-tetrazol-5-yl)benzamide], the IC50 is 144 nM. Still for that read-out and setting: in the case of `CC(C)(C)C1CCC(N(Cc2ccc(C(=O)NCCC(=O)O)cc2)C(=O)c2cccc(C(F)(F)F)c2)CC1` (centres unmarked) [Example 527, 3-(4-{[(4-tert-Butylcyclohexyl)-(3-trifluormethylbenzoyl)amino]methyl}benzoylamino)propionic acid] it was 660 nM; in that of `COc1ccc(NC(=O)N(Cc2ccc(C(=O)NCCC(=O)O)cc2)C2CCC(C(C)(C)C)CC2)cc1` (centres unmarked) [Example 59, 3-{4-[1-(4-tert-Butylcyclohexyl)-3-(4-methoxyphenyl)ureidomethyl]benzoylamino}propionic acid], 3800 nM; in that of `CCCCC(CC)CN(Cc1ccc(C(=O)NCCC(=O)O)cc1)C(=O)Nc1ccc(SC)cc1` (centres unmarked) [Example 41, 3-{4-[1-(2-Ethylhexyl)-3-(4-methylsulfanylphenyl)ureidomethyl]benzoylamino}propionic acid], 299 nM. Regarding `O=C(Nc1nn[nH]n1)c1ccc(CN(C(=O)Nc2cccc(C(F)(F)F)c2)c2ccc(C3CCCCC3)cc2)cc1` [Example 567, 4-[1-(4-Cyclohexylphenyl)-3-(3-trifluoromethylphenyl)ureidomethyl]-N-(2H-tetrazol-5-yl)benzamide], the IC50 amounted to 5 nM. On to `CC(C)(C)c1ccc(N(Cc2ccc(C(=O)Nc3nn[nH]n3)cc2)C(=O)Nc2nc3ccc(OC(F)(F)F)cc3s2)cc1` [Example 615, 4-[1-(4-tert-Butylphenyl)-3-(6-trifluoromethoxy-benzothiazol-2-yl)ureidomethyl]-N-(2H-tetra-5-yl)benzamide], for which the IC50 worked out at 105 nM. On the same count and under the same terms, in the case of `CC(C)(C)C1CCC(N(Cc2ccc(C(=O)NCCC(=O)O)cc2)C(=O)Cc2ccc(OC(F)(F)F)cc2)CC1` (centres unmarked) [Example 506, 3-[4-({(4-tert-Butylcyclohexyl)-[2-(4-trifluoromethoxyphenyl)acetyl]amino}methyl)benzoylamino]propionic acid] it was 108 nM; in that of `CC(C)(C)C1CCC(N(Cc2ccc(C(=O)NCCC(=O)O)cc2)C(=O)Nc2ccc([N+](=O)[O-])cc2)CC1` (centres unmarked) [Example 67, 3-{4-[1-(4-tert-Butylcyclohexyl)-3-(4-nitrophenyl)ureidomethyl]benzoylamino}propionic acid], 891 nM.

Turning to `Cc1cc(NC(=O)N(Cc2ccc(C(=O)Nc3nn[nH]n3)cc2)C2CCC(C(C)(C)C)CC2)cc(C(F)(F)F)c1` (centres unmarked) [Example 363, 4-[1-(4-tert-Butylcyclohexyl)-3-(3-methyl-5-trifluoromethylphenyl)ureidomethyl]-N-(2H-tetrazol-5-yl)benzamide], the IC50 is 23 nM.

`CC(c1ccc(C(=O)Nc2nn[nH]n2)cc1)N(C(=O)Nc1ccc(OC(F)(F)F)cc1)c1ccc(C(C)(C)C)cc1` (centres unmarked) [Example 646, 4-{1-[1-(4-tert-Butylphenyl)-3-(4-trifluoromethoxyphenyl)ureido]ethyl}-N-(2H-tetrazol-5-yl)benzamide]: the IC50 amounted to 22 nM. As for `O=C(O)CCNC(=O)c1ccc(CN(CC(c2ccccc2)c2ccccc2)C(=O)Cc2ccc(OC(F)(F)F)cc2)cc1` [Example 504, 3-[4-({(2,2-Diphenylethyl)-[2-(4-trifluoromethoxyphenyl)acetyl]amino}methyl)benzoylamino]propionic acid], the IC50 stood at 235 nM. Turning to `CC(C)Cc1ccc(C(=O)N(Cc2ccc(C(=O)Nc3nn[nH]n3)cc2)C2CCC(C(C)(C)C)CC2)cc1` (centres unmarked) [Example 511, 4-{[(4-tert-Butylcyclohexyl)-(4-isobutylbenzoyl)amino]methyl}-N-(2H-tetrazol-5-yl)benzamide], the IC50 was determined as 58 nM. On the same count and under the same terms, in the case of `CC(C)(C)c1ccc(N(Cc2ccc(C(=O)Nc3nn[nH]n3)cc2)C(=O)Nc2cccc([N+](=O)[O-])c2)cc1` [Example 287, 4-[1-(4-tert-Butylphenyl)-3-(3-nitrophenyl)ureidomethyl]-N-(2H-tetrazol-5-yl)benzamide] it was 52 nM. Same read-out and setting: in the case of `CS(=O)(=O)c1cccc(NC(=O)N(Cc2ccc(C(=O)Nc3nn[nH]n3)cc2)C2CCC3(CCCCC3)CC2)c1` [Example 620, 4-[3-(3-Methylsulfonylphenyl)-1-spiro[5.5]undec-3-ylureidomethyl]-N-(2H-tetrazol-5-yl)benzamide] it was 542 nM; in that of `O=C(Nc1nn[nH]n1)c1ccc(CN(CC(c2ccccc2)c2ccccc2)C(=O)Cc2ccc(OC(F)(F)F)cc2)cc1` [Example 531], 627 nM; in that of `CCN(CC)C(=O)C1CCC(N(Cc2ccc(C(=O)NCCC(=O)O)cc2)C(=O)Nc2ccc(OC(F)(F)F)cc2)CC1` (centres unmarked) [Example 382, 3-{4-[1-(4-Diethylcarbamoylcyclohexyl)-3-(4-trifluoromethoxyphenyl)ureidomethyl]benzoylamino}propionic acid], 781 nM.

The test is the same for the next values; noted with them: Glu Bd Assay (III) IC50 (nM), BHK cell membranes, WGA SPA beads, 125I-glucagon.
`CC(C)(C)C1CCC(N(Cc2ccc(C(=O)NCCC(=O)O)cc2)C(=O)Nc2ccc(C#N)cc2)CC1` (centres unmarked) [Example 99, 3-{4-[1-(4-tert-Butylcyclohexyl)-3-(4-cyanophenyl)ureidomethyl]benzoylamino}propionic acid] showed an IC50 of 1050 nM.
